Measurements: the CheMixHub viscosity set

Experiment: xn = mol fraction of the nth substance listed

CC(C)(C)N + NC1CCCCC1
298.15 K, 101 kPa
Details	viscosity [mPa·s]
x2 = 0.0757	0.569
x2 = 0.1557	0.7445
x2 = 0.2401	0.9554
x2 = 0.3296	1.173
x2 = 0.4244	1.407
x2 = 0.5252	1.612
x2 = 0.6324	1.785
x2 = 0.7468	1.894
x2 = 0.8691	1.915

CCC(C)(C)OC + CCCCCC
viscosity [mPa·s], 100 kPa
Details	x1 = 0.0498	x1 = 0.1632	x1 = 0.2584	x1 = 0.3742	x1 = 0.4276	x1 = 0.5464	x1 = 0.6121	x1 = 0.7457	x1 = 0.8625	x1 = 0.9488
293.15 K	0.317	0.325	0.332	0.343	0.349	0.363	0.372	0.391	0.412	0.429
303.15 K	0.287	0.293	0.3	0.31	0.315	0.33	0.339	0.362	0.384	0.407
313.15 K	0.254	0.259	0.266	0.277	0.282	0.296	0.304	0.323	0.343	0.358
